Test results: PMC4300400, “Comparative biochemical analysis of three members of the Schistosoma mansoni TAL family: Differences in ion and drug binding properties” (Biochimie, 2015)
Structures can show the parent of a compound that is named as a salt.

Legend:
[1] = molecular target: T1, SmTAL2 (Sm21.7) (Schistosoma mansoni, UniProt P32070); assay: limited proteolysis protection (trypsin, chymotrypsin); format: binding; conditions: 250 μM drug, 10 μM protein, 1% DMSO, 0.8 mM CaCl2, 37 °C
T1 construct: recombinant, E. coli, N-terminal GST fusion cleaved with thrombin; EF-hand N-terminal plus DLC-like C-terminal domain; dimer
T1 sequence (P32070 1-184): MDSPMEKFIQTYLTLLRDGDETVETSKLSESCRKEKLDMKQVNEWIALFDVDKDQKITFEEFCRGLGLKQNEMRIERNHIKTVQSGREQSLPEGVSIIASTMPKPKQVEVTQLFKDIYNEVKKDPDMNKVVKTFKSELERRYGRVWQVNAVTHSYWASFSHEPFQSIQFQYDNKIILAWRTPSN

[2] = molecular target: T2, SmTAL1 (Sm22.6) (Schistosoma mansoni, UniProt P14202); assay: differential scanning fluorimetry (Sypro Orange); format: binding; conditions: 250 µM; 0.25 mM drug, 5 μM protein, 1% DMSO, 0.8 mM CaCl2, 50 mM Hepes pH 7.5, 150 mM NaCl; absolute Tm, not a shift (DMSO control in the 1st table, row 5)
T2 construct: gene A12; recombinant, E. coli, N-terminal GST fusion cleaved with thrombin; EF-hand N-terminal plus DLC-like C-terminal domain; dimer
T2 sequence (P14202 1-190): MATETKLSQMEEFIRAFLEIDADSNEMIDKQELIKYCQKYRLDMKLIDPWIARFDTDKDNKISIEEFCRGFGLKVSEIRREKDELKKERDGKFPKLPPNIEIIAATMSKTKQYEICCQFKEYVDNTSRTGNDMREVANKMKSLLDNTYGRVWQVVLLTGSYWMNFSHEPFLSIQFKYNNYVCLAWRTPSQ
Excerpt: differential scanning fluorimetry (Sypro Orange) on SmTAL1 (Sm22.6)

[3] = molecular target: T3, SmTAL3 (Sm20.8) (Schistosoma mansoni, UniProt P91804); assay: differential scanning fluorimetry (Sypro Orange); format: binding; conditions: 250 µM; 0.25 mM drug, 7 μM protein, 1% DMSO, 0.8 mM CaCl2, 50 mM Hepes pH 7.5, 150 mM NaCl; absolute Tm, not a shift (DMSO control in the 1st table, row 5)
T3 construct: gene Sm 20.8; recombinant, E. coli, N-terminal GST fusion cleaved with thrombin; EF-hand-like N-terminal plus DLC-like C-terminal domain; dimer and higher oligomers
T3 sequence (P91804 1-181): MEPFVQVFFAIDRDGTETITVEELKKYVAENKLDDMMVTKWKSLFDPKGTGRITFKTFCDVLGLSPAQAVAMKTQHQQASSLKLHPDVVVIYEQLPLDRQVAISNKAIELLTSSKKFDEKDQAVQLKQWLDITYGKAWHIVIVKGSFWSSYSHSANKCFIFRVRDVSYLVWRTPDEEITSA
Excerpt: differential scanning fluorimetry (Sypro Orange) on SmTAL3 (Sm20.8)

[4] = molecular target: SmTAL3 (Schistosoma mansoni tegumental allergen-like protein 3) (Schistosoma mansoni); assay: cross-linking; BS3 (50, 150, 500 μM) with 10-15 μM protein in buffer R (50 mM Hepes-OH pH 7.5, 150 mM NaCl, 10% v/v glycerol), 37 °C, 35 min; with 0.8 mM EGTA or 0.8 mM EGTA/1.6 mM calcium chloride; analysed by 15% SDS-PAGE
[5] = molecular target: the molecule itself; assay: as above

NCCCCCCNS(=O)(=O)c1cccc2c(Cl)cccc12 [W7, N-(6-Aminohexyl)-5-chloro-1-naphthalenesulfonamide hydrochloride]
limited proteolysis protection (trypsin, chymotrypsin) [1]: Of the drugs tested, only W7 protected SmTAL2 from limited proteolysis by trypsin or chymotrypsin
melting temperature (Tm) [2]: 61.5 ± 0.3 °C
SmTAL3 [3]: 74.3 ± 0.1 °C

CN(C)CCCN1c2ccccc2Sc2ccc(Cl)cc21 [chlorpromazine]
melting temperature (Tm) [2]: 61.3 ± 0.3 °C
SmTAL3 [3]: 74.1 ± 0.1 °C

O=C(C1CCCCC1)N1CC(=O)N2CCc3ccccc3C2C1 (centres unmarked) [praziquantel]
melting temperature (Tm) [2]: 61.7 ± 0.2 °C

CN1CCN(CCCN2c3ccccc3Sc3ccc(C(F)(F)F)cc32)CC1 [trifluoperazine]
melting temperature (Tm) [2]: 62.2 ± 0.8 °C
SmTAL3 [3]: 73.9 ± 0.1 °C

SmTAL3 (Schistosoma mansoni tegumental allergen-like protein 3) (natural protein)
stoichiometry N [4]: 2

B1: SmTAL2 (Schistosoma mansoni tegumental allergen-like protein 2) (natural protein, UniProt P32070 1-184, looked up)
chain: T1 sequence (P32070 1-184)
notes: SmTAL2 (Sm21.7), Schistosoma mansoni, GenBank AAA74050.1, Smp_086480.1; also called Sm21.7; source: E. coli, GST-fusion isolated on glutathione-agarose, cleaved with thrombin, free GST removed on Q-Sepharose; not shown: GST, N-terminal, cleaved
stoichiometry N [5]: 2

B2: SmTAL1 (Schistosoma mansoni tegumental allergen-like protein 1) (natural protein, UniProt P14202 1-190, looked up)
chain: T2 sequence (P14202 1-190)
notes: SmTAL1 (Sm22.6), Schistosoma mansoni, GenBank AAA29922.1, Smp_045200.1; also called Sm22.6; source: E. coli, GST-fusion isolated on glutathione-agarose, cleaved with thrombin, free GST removed on Q-Sepharose; not shown: GST, N-terminal, cleaved
stoichiometry N [5]: 2
